Counter-ions that a name gives are not always drawn. Like-named read-outs stand apart in the source and are kept apart here.
Target: T1, FAAH (Rattus norvegicus, UniProt P97612)
T1 construct: Preparation of Rat Brain Membranes Preparations (FAAH Enzyme Solution); from tissue; host or cells: rat cerebrum (brain membrane preparation)
T1 sequence (P97612 1-579): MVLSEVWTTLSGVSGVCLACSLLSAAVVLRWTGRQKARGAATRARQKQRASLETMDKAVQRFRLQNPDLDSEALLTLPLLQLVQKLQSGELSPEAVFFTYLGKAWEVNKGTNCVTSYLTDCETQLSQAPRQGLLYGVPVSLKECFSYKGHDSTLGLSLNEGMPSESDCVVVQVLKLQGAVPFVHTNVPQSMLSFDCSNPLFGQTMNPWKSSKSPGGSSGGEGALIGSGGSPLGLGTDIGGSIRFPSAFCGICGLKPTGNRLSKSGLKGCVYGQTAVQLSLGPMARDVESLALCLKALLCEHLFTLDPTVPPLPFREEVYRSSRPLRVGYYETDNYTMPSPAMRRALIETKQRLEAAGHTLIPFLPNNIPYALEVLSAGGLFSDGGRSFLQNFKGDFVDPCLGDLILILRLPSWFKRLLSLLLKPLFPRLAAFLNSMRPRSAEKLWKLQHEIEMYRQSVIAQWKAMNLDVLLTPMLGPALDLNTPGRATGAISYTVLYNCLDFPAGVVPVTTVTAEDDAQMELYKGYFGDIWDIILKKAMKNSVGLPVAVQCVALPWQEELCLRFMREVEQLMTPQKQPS
Experiment: Determination of FAAH inhibitory activity in rat (rat brain membrane preparations, [3H]-anandamide hydrolysis)
Format: biochemical
Conditions: for IC50: read-out: FAAH Inhibition IC50
Outline: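 Compounds tested from 0.1 nM to 1 μM to derive IC50 against FAAH hydrolysis in rat brain membrane preparations (100 μg/mL). A 10-min 37 °C preincubation was followed by 10 min with [3H]-anandamide (2 nM) mixed with 2 μM unlabelled anandamide. Radioactive ethanolamine was extracted into the water/methanol layer and counted.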

[1] = at 100 nM, rat brain membrane preparations, read-out: FAAH Inhibition Inhibition Rate at 100 nM
[2] = rat brain membrane preparations
[3] = rat brain membrane preparations, 100 nM test substance, read-out: FAAH Inhibition, Inhibition Rate at 100 nM
[4] = rat brain membrane preparations, test substance 0.1 nM to 1 μM

inhibition at 0.1 µM [1] [%] | IC50 [2] [nM] | inhibition at 0.1 µM [3] [%] | IC50 [4] [nM] | Structure (SMILES) | inhibition at 0.1 µM (read-out: FAAH Inhibition, Inhibition Rate at 100 nM) [%]
115 | 10 | – | – | CCn1c(=O)n(C(=O)N2CC(c3ccc(F)cc3)C2)c2cnc(COC)nc21 [Example 656, 9-Ethyl-7-{[3-(4-fluorophenyl)azetidin-1-yl]carbonyl}-2-(methoxymethyl)-7,9-dihydro-8H-purine-8-one] | –
– | – | 57 | 84 | Cn1c(=O)n(C(=O)N2CCCC2)c2cnc(CCCc3ccccc3)nc21 [Example 21] | –
– | – | 66 | 74 | O=C(N1CCCC1)n1c(=O)n(Cc2ccccc2)c2nc(-c3ccccc3)ncc21 [Example 308] | –
– | – | 74 | 37 | COCc1ncc2c(n1)n(C)c(=O)n2C(=O)N1CC(c2ccccc2F)C1 [Example 441, 7-{[3-(2-Fluorophenyl)azetidin-1-yl]carbonyl}-2-(methoxymethyl)-9-methyl-7,9-dihydro-8H-purine-8-one] | –
– | – | 78 | 63 | COc1ccc(-c2ncc3c(n2)n(C(=O)N2CCCC2)c(=O)n3C)cn1 [Example 250, 2-(6-Methoxypyridin-3-yl)-7-methyl-9-(pyrrolidin-1-ylcarbonyl)-7,9-dihydro-8H-purine-8-one] | –
– | – | 102 | 4 | CC(=O)c1ccc(-c2ncc3c(n2)n(C)c(=O)n3C(=O)N2CCCC2)cc1 [compound 184] | –
– | – | 88 | 54 | Cc1cncc(-c2ncc3c(n2)n(C)c(=O)n3C(=O)N2CCCC2)c1 [compound 212] | –
– | – | 95 | 8 | Cn1c(=O)n(C(=O)N2CCC2)c2nc(COc3ccc(C(F)(F)F)cc3)ncc21 [Example 434] | –
– | – | 87 | 51 | COc1cccc(-c2ncc3c(n2)n(C)c(=O)n3C(=O)N(C)Cc2cccc(Cl)c2)c1 [Example 79, N-(3-Chlorobenzyl)-2-(3-methoxyphenyl)-N,9-dimethyl-8-oxo-8,9-dihydro-7H-purine-7-carboxamide] | –
– | – | 100 | 5 | COCCc1ncc2c(n1)n(C)c(=O)n2C(=O)N1CC(c2ccc(C(F)(F)F)cc2)C1 [Example 388, 2-(2-methoxyethyl)-9-methyl-7-({3-[4-(trifluoromethyl)phenyl]azetidin-1-yl}carbonyl)-7,9-dihydro-8H-purine-8-one hydrochloric acid salt] | –
– | – | 71 | 50 | CCN(C)C(=O)n1c(=O)n(C)c2cnc(-c3cccc(C)c3)nc21 [compound 340] | –
87 | 88 | – | – | Cn1c(=O)n(C(=O)N2CCC2)c2nc(CCc3ccc4c(c3)CCO4)ncc21 [Example 620] | –
– | – | 100 | 9 | Cn1c(=O)n(C(=O)N2CCCC2)c2nc(-c3cccc(C(F)(F)F)c3)ncc21 [Example 234, 7-Methyl-9-(pyrrolidin-1-ylcarbonyl)-2-[3-(trifluoromethyl)phenyl]-7,9-dihydro-8H-purine-8-one] | –
– | – | 99 | 6 | COc1cccc(-c2ncc3c(n2)n(C)c(=O)n3C(=O)N2CCN(c3ccc(C)cc3)CC2)c1 [Example 138, 2-(3-Methoxyphenyl)-9-methyl-7-{[4-(4-methylphenyl)piperazin-1-yl]carbonyl}-7,9-dihydro-8H-purine-8-one] | –
– | – | 100 | 10 | CCOc1ccc(-c2ncc3c(n2)n(C)c(=O)n3C(=O)N2CCCC2)cc1 [compound 176] | –
– | – | 93 | 7 | COCCCc1ncc2c(n1)n(C)c(=O)n2C(=O)N1CC(c2cccc(C(F)(F)F)c2)C1 [Example 386] | –
– | – | 41 | 131 | CC(C)Oc1cccc(CCc2ncc3c(n2)n(C(=O)N(C)C)c(=O)n3C)c1 [compound 536] | –
– | – | 98 | 5 | Cn1c(=O)n(C(=O)N2CCC2)c2nc(CCc3cccc(F)c3)ncc21 [Example 164, 9-(Azetidin-1-ylcarbonyl)-2-[2-(3-fluorophenyl)ethyl]-7-methyl-7,9-dihydro-8H-purine-8-one] | –
60 | 31 | – | – | CN(C)C(=O)n1c(=O)n(C)c2cnc(Cc3ccccc3Cl)nc21 [compound 652] | –
– | – | 55 | 100 | Cn1c(=O)n(C(=O)N2CCC2)c2cnc(COc3cccc(C(F)(F)F)c3)nc21 [compound 410] | –

inhibition at 0.1 µM [1] [%] | IC50 [2] [nM] | inhibition at 0.1 µM [3] [%] | IC50 [4] [nM] | Structure (SMILES) | inhibition at 0.1 µM (read-out: FAAH Inhibition, Inhibition Rate at 100 nM) [%]
– | – | 81 | 25 | Cn1c(=O)n(C(=O)N2CCC2)c2nc(CCc3cc(F)cc(F)c3)ncc21 [Example 580, 9-(Azetidin-1-ylcarbonyl)-2-[2-(3,5-difluorophenyl)ethyl]-7-methyl-7,9-dihydro-8H-purine-8-one] | –
– | – | 101 | 23 | COc1cccc(-c2ncc3c(n2)n(C)c(=O)n3C(=O)N2CCCC2)c1F [Example 196, 2-(2-Fluoro-3-methoxyphenyl)-9-methyl-7-(pyrrolidin-1-ylcarbonyl)-7,9-dihydro-8H-purine-8-one] | –
– | – | 45 | 113 | CCOc1ccc(-c2ncc3c(n2)n(C(=O)N(C)C)c(=O)n3C)cc1 [compound 320] | –
102 | 7 | – | – | CCCc1ncc2c(n1)n(C(=O)N1CC(c3ccccc3)C1)c(=O)n2C [Example 637] | –
– | – | 94 | 46 | O=C(N1CCCC1)n1c(=O)n(CCO)c2nc(-c3ccccc3)ncc21 [Example 302, 9-(2-hydroxyethyl)-2-phenyl-7-(pyrrolidin-1-ylcarbonyl)-7,9-dihydro-8H-purine-8-one] | –
– | – | 79 | 12 | Cn1c(=O)n(C(=O)N2CCC2)c2nc(COc3ccccc3F)ncc21 [Example 425] | –
– | – | 79 | 66 | Cn1c(=O)n(C(=O)N2CCCC2)c2cnc(CCc3ccccc3)nc21 [Example 11, 9-Methyl-2-(2-phenylethyl)-7-(pyrrolidin-1-ylcarbonyl)-7,9-dihydro-8H-purine-8-one] | –
– | – | 100 | 7 | Cc1ccc(N2CCN(C(=O)n3c(=O)n(C)c4nc(-c5ccccc5)ncc43)CC2)nc1 [Example 56, 9-Methyl-7-{[4-(5-methylpyridin-2-yl)piperazin-1-yl]carbonyl}-2-phenyl-7,9-dihydro-8H-purine-8-one] | –
– | – | 66 | 52 | CN(C)C(=O)n1c(=O)n(C)c2cnc(CCc3cccc(OCC(F)F)c3)nc21 [Example 530, 2-{2-[3-(2,2-Difluoroethoxy)phenyl]ethyl}-N,N,7-trimethyl-8-oxo-7,8-dihydro-9H-purine-9-carboxamide] | –
– | – | 98 | 15 | CN(C)C(=O)n1c(=O)n(C)c2cnc(CCc3cccc(OCC(F)(F)F)c3)nc21 [Example 552, N,N,7-Trimethyl-8-oxo-2-{2-[3-(2,2,2-trifluoroethoxy)phenyl]ethyl}-7,8-dihydro-9H-purine-9-carboxamide] | –
– | – | 102 | 6 | COc1ccc(-c2ncc3c(n2)n(C)c(=O)n3C(=O)N2CCCC2)cc1 [compound 174] | –
76 | 27 | – | – | CN(C)C(=O)n1c(=O)n(C)c2cnc(CCOc3cccc(F)c3)nc21 [compound 639] | –
– | – | 95 | 13 | Cc1cc(C)c(CCc2ncc3c(n2)n(C(=O)N(C)C)c(=O)n3C)c(C)c1 [compound 511] | –
– | – | 105 | < 1 | CN(CCC1CCCCC1)C(=O)n1c(=O)n(C)c2nc(-c3ccncc3)ncc21 [Example 223, N-(2-Cyclohexylethyl)-N,9-dimethyl-8-oxo-2-(pyridin-4-yl)-8,9-dihydro-7H-purine-7-carboxamide] | –
– | – | 100 | 14 | Cn1c(=O)n(C(=O)N2CCCC2)c2cnc(Cc3cccc(F)c3)nc21 [Example 255, 2-(3-Fluorobenzyl)-9-methyl-7-(pyrrolidin-1-ylcarbonyl)-7,9-dihydro-8H-purine-8-one] | –
– | – | 99 | 10 | Cc1ccc(CCc2ncc3c(n2)n(C(=O)N2CCC2)c(=O)n3C)cc1C [compound 565] | –
– | – | 101 | 10 | CCc1ccc(CCc2ncc3c(n2)n(C(=O)N(C)C)c(=O)n3C)cc1 [compound 503] | –
– | – | 107 | 10 | CCOCc1ncc2c(n1)n(C)c(=O)n2C(=O)N1CC(c2ccc(F)cc2)C1 [compound 461] | –
102 | 10 | – | – | COCc1ncc2c(n1)n(C1CC1)c(=O)n2C(=O)N1CC(c2ccc(F)cc2)C1 [compound 664] | –

Structure (SMILES) | inhibition at 0.1 µM [1] [%] | IC50 [2] [nM] | inhibition at 0.1 µM [3] [%] | IC50 [4] [nM] | inhibition at 0.1 µM (read-out: FAAH Inhibition, Inhibition Rate at 100 nM) [%]
CN(CCc1ccc(Cl)cc1)C(=O)n1c(=O)n(C)c2nc(-c3ccncc3)ncc21 [Example 150, N-[2-(4-Chlorophenyl)ethyl]-N,9-dimethyl-8-oxo-2-(pyridin-4-yl)-8,9-dihydro-7H-purine-7-carboxamide] | – | – | – | < 1 | 106

Reference: US8735406B2, “8-oxodihydropurine derivative” (Dainippon Sumitomo Pharma Co., Ltd., priority 2009, dated 2014)
